Two molecules from publication PMC6588697, “Lugdunin amplifies innate immune responses in the skin in synergy with host- and microbiota-derived factors” (Nature Communications, 2019) can be followed below.

Holding throughout (format): cell-based, human
For experiment [1], the system named is HTEpCs. In words: CXCL8 expression in HTEpCs (qRT-PCR). Conditions: 5 h, 100 ng/mL Pam2Cys or Pam3Cys, two technical replicates, sheet Supp Fig 1g. Here is the method:
(§1) Quantitative reverse transcription-polymerase chain reaction (qRT-PCR) was performed in 10 µL reaction volume with SYBR^TM Green PCR Master Mix (Thermo Fisher) according to the manufacturer’s instructions using a LightCycler 96 (Roche Life Science). The initial denaturation step was at 95 °C for 5 min, followed by 40 cycles with 10 s each for the denaturation step at 95 °C, the annealing at individual temperature, and the elongation at 72 °C. Primer sequences and respective annealing temperatures are listed in Supplementary Table 1. […]
(§2) 31 g+h+i: HNEpCs (b), HTEpCs (c) or PBMCs (d) were treated with increasing
(§3) 32 concentrations of lugdunin (grey bars) or 100 ng/mL Pam2Cys or Pam3Cys (white
(§4) 33 bars) as positive controls for 5 hours and subsequently expression of CXCL8 was
(§5) 34 analyzed and normalized to actin. Black bar: medium control. Shown is one
(§6) 35 representative experiment of three independent experiments with two technical
(§7) 36 replicates +/-s.e.m. Significant differences to control treatments were analyzed by
(§8) 37 ordinary one-way ANOVA followed by Dunnett’s multiple comparisons test (*P<0.05; […]
For orientation: Quantitative PCR measures a nucleic acid by following its amplification.

The subject of experiment [2] is HNEpCs. In words: CXCL8 expression in HNEpCs (qRT-PCR). Particulars: 5 h, 100 ng/mL Pam2Cys or Pam3Cys, two technical replicates, sheet Supp Fig 1f. Here is the method: as §1, §2, §3, §4, §5, §6, §7, §8
The test system of experiment [3] is PHKs. In words: CXCL8 expression in PHKs (qRT-PCR, normalized to actin). Conditions: PHKs, 5 h. Here is the method:
Fig. 1 Lugdunin sensitizes epithelial cells for innate immune defense. a Primary human keratinocytes (PHKs) were pretreated with S. epidermidis conditioned medium (CM), indicated lugdunin concentrations, or the combination of both for 20 h. Subsequently, cells were infected with S. aureus for 1.5 h followed by cell lysis and determination of colony-forming units (CFUs). Shown is one representative experiment of three independent experiments with six technical replicates ± s.e.m. n.s., not significant. b Dorsal skin of mice was pretreated with S. epidermidis CM, 1.5 µg lugdunin alone or in combination with S. epidermidis CM for 24 h. Subsequently, S. aureus CFUs were determined. Horizontal lines represent the mean of each group ± s.e.m. c PHKs were treated with 2 μM lugdunin or with S. epidermidis CM alone or in combination for 20 h and subsequently expression of indicated antimicrobial peptides (AMPs) (respective protein names in brackets) was analyzed and normalized to actin. Shown is one representative experiment of three independent experiments with two technical replicates ± s.e.m. d PHKs were treated with 2 µM lugdunin or 100 ng/mL Pam2Cys for 5 h and subsequently the concentration of indicated cytokines in the supernatant was analyzed by LEGENDplex^TM (BioLegend). Shown is one representative experiment of three independent experiments with two technical replicates ± s.e.m. e PHKs were treated with increasing concentrations of lugdunin or 100 ng/mL Pam2Cys or Pam3Cys for 5 h and subsequently expression of chemokine (C-X-C motif) ligand 8 (CXCL8) was analyzed and normalized to actin. Shown is one representative experiment of three independent experiments, each with two technical replicates ± s.e.m. f, g Indicated cells were treated with 2 µM lugdunin or 100 ng/mL Pam2Cys as a positive control for 5 h and subsequently the concentration of CXCL8 (f) and interleukin-1α (IL-1α) (g) in the supernatant was analyzed by LEGENDplex^TM (BioLegend) and enzyme-linked immunosorbent assay (ELISA) (R&D Systems). Shown is one representative experiment of three independent experiments with two technical replicates ± s.e.m. Significant differences to control treatments were analyzed by ordinary one-way analysis of variance (ANOVA) followed by Dunnett’s multiple comparisons test (*P < 0.05; **P < 0.01; ***P < 0.001; ****P < 0.0001). n.d. = not detected. Source data are provided as a Source Data file
Fig. 4 Lugdunin amplifies the commensal-induced chemokine (C-X-C motif) ligand (CXCL8) induction. a Primary human keratinocytes (PHKs) were either treated with 2 μM of human antimicrobial peptides (AMPs) (black bars) or lugdunin (blue bars), or 0.8 μM (pro)-gallidermin or nisin (black bars), or in combination with S. epidermidis conditioned medium (CM) (gray and red striped bars) for 5 h, and subsequently expression of CXCL8 was analyzed and normalized to actin. Shown is one representative experiment of three independent experiments with two technical replicates ± s.e.m. b PHKs were treated with 2 μM human AMPs, 2 μM lugdunin, 0.8 μM of the other bacteriocins (gray bars) or the correspondent peptide combinations (white bars), or 50 ng/mL Pam2Cys, 10 ng/mL IL-1α, or S. epidermidis CM as controls (black bars), for 5 h and subsequently expression of CXCL8 was analyzed and normalized to actin. Shown is one representative experiment of three independent experiments with two technical replicates ± s.e.m. Significant differences to control treatments were analyzed by ordinary one-way analysis of variance (ANOVA) followed by Dunnett’s multiple comparisons test (***P < 0.001; ****P < 0.0001). Source data are provided as a Source Data file
After 5 h or 20 h of peptide treatment, PHKs were washed once with PBS, followed by the addition of RNA lysis buffer directly into the well. Total RNA was extracted using the Nucleospin RNA Kit (Macherey-Nagel) according to the manufacturer’s protocol. […]

The subject of experiment [4] is PBMCs. Briefly: CXCL8 expression in PBMCs (qRT-PCR). Particulars: 5 h, 100 ng/mL Pam2Cys or Pam3Cys, two technical replicates, sheet Supp Fig 1h. Here is the method: Quantitative reverse transcription-polymerase chain reaction (qRT-PCR) was performed in 10 µL reaction volume with SYBR^TM Green PCR Master Mix (Thermo Fisher) according to the manufacturer’s instructions using a LightCycler 96 (Roche Life Science). The initial denaturation step was at 95 °C for 5 min, followed by 40 cycles with 10 s each for the denaturation step at 95 °C, the annealing at individual temperature, and the elongation at 72 °C. Primer sequences and respective annealing temperatures are listed in Supplementary Table 1.
Human PBMCs were isolated from the peripheral blood of healthy donors upon obtaining informed consent by Ficoll-Histopaque (Biochrom) gradient centrifugation. Cells were washed once in PBS and adjusted to a cell number of 1 × 10^6 mL^−1 in RPMI-1640 medium (Gibco/Life Technologies) containing 10% FBS (Biochrom/Merck Millipore). […]
as §2, §3, §4, §5, §6, §7, §8

Values joined by “and” are separate entries in the source; they are usually repeats but may differ in a detail not shown here. Equal entries are not always repeated.

Take Pam3Cys [reference compound]: the CXCL8 fold induction in experiment [1] was 3.972 and 3.732; in experiment [2] it was 22.316 and 30.696; in experiment [4], 2.838 and 2.819. Further, the “CXCL8 expression normalized to actin” value in experiment [3] (100 ng/mL Pam2Cys or Pam3Cys, medium = 1, technical replicates, Fig 1e) is 1.261 and 1.177.

B1: IL-1: interleukin-1α, 10 ng/mL, control in Fig 4b (protein, UniProt P01583 113-271, looked up)
Interleukin-1 alpha: SAPFSFLSNVKYNFMRIIKYEFILNDALNQSIIRANDQYLTAAALHNLDEAVKFDMGAYKSSKDDAKITVILRISKTQLYVTAQDEDQPVLLKEMPEIPKTITGSETNLLFFWETHGTKNYFTSVAHPNLFIATKQDYWVCLAGGPPSITDFQILENQA
On to B1, for which the “CXCL8 expression normalized to actin” value in experiment [3] (2 µM human AMPs, 2 µM lugdunin, 0.8 µM other bacteriocins or their combinations, 50 ng/mL Pam2Cys, 10 ng/mL IL-1α, S. epidermidis CM, two technical replicates, Fig 4b) is 153.545 and 150.36.
